Laboratory results from PubChem BioAssay (NCI).
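Assay format: 96-well plates, 48-hour exposure. TGI denotes the concentration required for complete inhibition of growth.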

Columns and labels:
Experiment in all cases: NCI anticancer screen, dose series, 48 h
DU-145 prostate = test system: DU-145 prostate
HT29 colon = test system: HT29 colon
OVCAR-5 ovarian = test system: OVCAR-5 ovarian
OVCAR-4 ovarian = test system: OVCAR-4 ovarian
K-562 leukemia = test system: K-562 leukemia
HCC-2998 colon = test system: HCC-2998 colon
A549 NSCLC = test system: A549 NSCLC
BT-549 breast = test system: BT-549 breast
SF-295 CNS = test system: SF-295 CNS
RPMI-8226 leukemia = test system: RPMI-8226 leukemia
HCT-116 colon = test system: HCT-116 colon

Compound | TGI (DU-145 prostate) [µM] | TGI (HT29 colon) [µM] | TGI (OVCAR-5 ovarian) [µM] | TGI (OVCAR-4 ovarian) [µM] | TGI (K-562 leukemia) [µM] | TGI (HCC-2998 colon) [µM] | TGI (A549 NSCLC) [µM] | TGI (BT-549 breast) [µM] | TGI (SF-295 CNS) [µM] | TGI (RPMI-8226 leukemia) [µM] | TGI (HCT-116 colon) [µM]
CCOC(=O)c1c(N)n(-c2ccccc2)c(=S)n(-c2ccccc2)c1=O | > 100 | > 100 | > 100 | > 100 | > 100 | > 100 | > 100 | > 100 | > 100 | > 100 | 
c1ccc(N=c2snc(-c3ccccc3)s2)cc1 |  |  |  | > 100 | > 100 | > 100 | > 100 |  |  | > 100 | > 100
COc1ccc(NC2Oc3cc4c(cc3C(c3cc(OC)c(OC)c(OC)c3)C2C)OCO4)cc1 (stereo not given) | > 91.4 | > 100 | > 100 | > 100 | > 100 |  | > 61.9 | > 87.9 | 0.971 | > 83 | 19.1
O=c1nc2c(c(-c3cccc(Cl)c3)[nH]1)COC/C2=C\c1cccc(Cl)c1 | > 100 |  | > 100 | > 100 | > 100 | > 100 |  | > 100 | > 100 | > 100 | > 100
Cc1cc2cccc(Cl)c2nc1C(=O)c1ccccc1 |  |  | > 100 | > 100 | > 100 | > 100 | > 100 |  | 51.9 | > 100 | > 100
CCN(CCCN(CC)C(=O)N[C@@H](Cc1ccccc1)C(=O)NC)C(=O)N[C@@H](Cc1ccccc1)C(=O)NC | > 100 | > 100 | > 100 | > 100 |  | > 100 | > 100 | > 100 | > 100 |  | > 100
CC(=O)/C(=C/n1c(=S)sc2ccccc21)C(=O)Nc1ccccc1C | > 100 | > 100 | > 100 | > 100 |  | > 100 | > 100 | > 100 | > 100 |  | > 100
CSc1c(C(=O)Nc2ccc(C)cc2)c(N)[nH]c(=O)c1C#N | > 100 | > 100 | > 100 | > 100 | > 100 | > 100 | > 100 | > 100 |  | > 100 | > 100
CN1CCN(C(=S)N(C)C(=O)c2ccc(Cl)cc2)CC1 | > 100 | > 100 | > 100 | > 100 | > 100 | > 100 | > 100 | > 100 | > 100 | > 100 | 
CC1CC(C#N)=C2NCCCCN2C1=O (stereo not given) | > 100 | > 100 |  | > 100 | > 100 | > 100 | > 100 | > 100 | > 100 | > 100 | 
CCOC(=O)C1CC(O)C(=O)N1C (stereo not given) | > 100 | > 100 | > 100 | > 100 |  | > 100 | > 100 | > 100 | > 100 | > 100 | > 100
